Assay results as given in US4617394A, “4-methyl-5-(unsubstituted and substituted phenoxy)-2,6-dimethoxy-8-(aminoalkylamino) quinolines” (priority 1985, dated 1986).
Entries after “also recorded” stand apart in the source; their conditions may differ.

Assays:
[1] = Acute toxicity in the rat by oral or intraperitoneal administration; details: Rat, female, oral
methemoglobin [2] = type: in vivo, Dog; details: oral capsule, days 0-3, 3 mg/kg primaquine base per day or molar equivalent
Description: ^a Primaquine, Comparative Compound, or Compound X, were administered
orally by capsule for four days on days 0, 1, 2 and 3 at a dose of 3 mg/k
primaquine base per day or the molar equivalent.
^e Total methemoglobin production expressed as mg of MHb/ml of
blood/hr for a total of 2 days after administration of the first dose.
^f Area under the % methemoglobin versus time curve (AUC).

[3] = test system: Plasmodium cynomolgi (strain B); experiment: Radical Curative Test in Rhesus Monkeys, SEATO Medical Research Laboratory; type: in vivo, Indian rhesus monkeys; details: for Radical Curative Activity, Cures (C): Table 1, Seato Rhesus
Description: Radical Curative Test in Rhesus Monkeys, SEATO Medical Research Laboratory, Bangkok,
This test is designed to evaluate the tissue schizonticidal (radical curative) activity of test compounds. Well-conditioned Indian rhesus monkeys of either sex weighing 2-4 Kg are utilized. Plasmodium cynomolgi (strain B) sporozoites are prepared by grinding heavily infected Anopheles dirus salivary glands in 1:1 monkey serum-saline vehicle.
Monkeys are infected by I.V. injection of 10^6 freshly isolated P. cynomolgi sporozoites on day 0. A rapidly rising parasitemia develops after a 7 to 9 day prepatient period, and administration of the test drug is initiated when the rising parasite count exceeds 5000 per mm^3 (typically day 10-12). Test drugs are administered orally (by nasogastric intubation) once daily for 7 consecutive days in aqueous solution or, if insoluble, in suspension in 0.3% methylcellulose solution. Chloroquine diphosphate (3.1 mg of base/kg orally per day) is always administered concurrently with the test drug for 7 days to eliminate blood schizonts. Thus any tissue schizonticidal activity of the test drug will always be apparent even if it lacks blood schizonticidal activity.
A vehicle control monkey and a positive drug control (primaquine) monkey are included in each group of inoculated monkeys.
The effect of the test drug is determined by counting blood parasites. Parasite counts are made daily through day 20, and every two days thereafter. Initially a clearance of blood parasites is observed due to the blood schizonticidal action of chloroquine. […] If there is no relapse within 20 days of the initial clearance of parasitemia, the monkey is splenectomized and its parasitemia followed for an additional 30 days. If there is no relapse within this period, the experiment is terminated and the monkey is considered "cured". Alternately, in some experiments, negative parasitemia was followed for 100 days without prior splenectomy. It has been determined that the splenectomy and non-splenectomy methods yield virtually identical results.
Primaquine diphosphate cures over 90% of monkeys in this test system when administered at a dose of 1.3 mg/kg of salt per day for 7 days ([…]) in combination with chloroquine.

methemoglobin [4] = details: background; cited from earlier work
[5] = test system: Plasmodium vivax and P. ovale malaria; details: background; cited from earlier work
[6] = test system: Plasmodium berghei KBG 173; experiment: animal or person; type: in vivo, young ICR/HA Swiss mice; details: for ΔMST: 160 mg/kg, 5 mice; for Toxic death (T): number of 5 mice, 320 mg/kg
Source text: Blood Schizonticidal Test (Mouse), University of Miami, Rane (suppressive)
This system is based on comparisons of responses to test compounds by Plasmodium berghei KBG 173 malaria in mice as expressed in mean survival times and the mean survival times of untreated controls. Thus, compounds noted as active produce increases in the survival times of the treated animals that are significant when compared with the survival times of untreated controls. Since an established disease is less sensitive to treatment than a disease in the early stages of development, treatment is withheld until the parasitemia is relatively high in order to insure a more reliable assay of activity and the selection of appropriate compounds for intensive preclinical studies.
Utilizing young ICR/HA Swiss mice and a standard inoculum of Plasmodium berghei KBG 173, it is possible to produce a uniform disease fatal to 100% of untreated animals within 6 to 8 days with a mean survival time of 6.2 days. Test animals weigh from 18 to 22 grams but weight variations in any given experimental or control group are confined to 2 to 3 grams. All animals in any given test are approximately of the same age. Animals on test are housed in metal-topped plastic cages, given a standard laboratory diet and water ad libitum.
Test animals receive an intraperitoneal injection of 0.5 ml of 1:100 dilution of heparinized heart's blood with a minimum of 90% parasitized cells (4×10^7 cells), drawn from donor mice infected one week earlier with Plasmodium berghei. The donor strain is maintained by weekly passages in separate groups of mice inoculated with a 0.5 ml of 1:500 dilution of heparinized heart's blood.
Test compounds are administered after dissolution or suspension in peanut oil. A single dose is given subcutaneously 72 hours after the mice are infected with Plasmodium berghei. At this time a 10-15 percent parasitemia has developed; the disease is well established but has not produced sufficient debility to alter the response of the host to toxic effects of the drug on test. Since treatment is withheld for three days to permit the infection to become well established and death occurs in untreated controls within 6 to 8 days, it is believed that this system presents a candidate compound with the maximum challenge. In order to check factors such as changes in the infectivity of Plasmodium berghei or in the susceptibility of the host or to detect technical errors, a group of infected animals treated with pyrimethamine at dose levels producing definite increases in survival time is included as a positive control in every experiment.
In each experiment test compounds are administered in graded doses. […] However, if an active drug is toxic for the host, its toxicity may become a limiting factor; continued increases in dose levels also increase the toxic effects and may result in the diminution of survival times. Deaths prior to the sixth day, when untreated controls begin to die, are regarded as non-parasitic and become the basis for the interpretation that the drug is toxic. Treated animals are kept under observation for 60 days. Survivors at the end of this period of time are considered as cured.
An increase of 100% in mean survival time is considered the minimum effective response for a candidate compound. In calculating mean survival time, toxic deaths and 60 day survivors are not included.

[7] = test system: Chesson strain of P. vivax; experiment: Antimalarial activity against (trophozoite-induced) infections of the Chesson strain of P. vivax in the Aotus monkey; type: in vivo
[8] = means differ significantly (p <.05)

Structure (SMILES): COc1cc(NC(C)CCCN)c2ncccc2c1 (centres unmarked) [Primaquine diphosphate, 8-(4-amino-1-methylbutylamino)-6-methoxyquinoline]
- LD50 (95% Confidence Limit) [1]: 244 (193-260) mg/kg (Salt)
- Peak % MHb (methemoglobin [2]; [8]): 6.27 ± 3.86%
- Slope of MHb Formation (methemoglobin [2]; [8]): 0.93 ± 0.61
- Time of Peak MHb (methemoglobin [2]; [8]): 3.92 ± 0.34 days
- MHb Disappearance Half-Time (methemoglobin [2]; no difference in the means): 7.89 ± 3.30 days
- MHb Production as AUC Corrected for Baseline (methemoglobin [2]; total methemoglobin production, means differ significantly (p <.05)): 2,138 ± 1,484 mg of MHb/ml of blood/hr
- radical curative activity in words ([3]; 0.316 mg/kg): inactive
- Cures ([3]; 1.0 mg/kg): 50%
- Cures ([3]; 1.3 mg/kg): 100%
- monkeys cured ([3]; 1.3 mg/kg of salt per day for 7 days (1.0 mg/kg free base), in combination with chloroquine): over 90%
- Radical Curative Activity, Cures (C) ([3]; P. cynomolgi, 0.316 mg/kg (× 7)): 0/2
- Radical Curative Activity, Cures (C) ([3]; P. cynomolgi, 1.0 mg/kg (× 7)): 1/2
- Radical Curative Activity, Cures (C) ([3]; P. cynomolgi, 1.3 mg/kg (× 7)): 6/6
- Cures ([3]; Table 2, P. cynomolgi, Rhesus, 0.10 mg/kg × 7 of salt): 0/2
- Cures ([3]; Table 2, P. cynomolgi, Rhesus, 0.316 mg/kg × 7 of salt): 0/2
- Cures ([3]; Table 2, P. cynomolgi, Rhesus, 1.0 mg/kg × 7 of salt): 1/2
- Cures ([3]; Table 2, P. cynomolgi, Rhesus, 1.3 mg/kg × 7 of salt): 6/6
- methemoglobin formation in words (methemoglobin [4]): cause methemoglobinemia; also recorded: Methemoglobin formation is induced
- toxicity in man, in words [5]: the toxicity of primaquine precludes administration of a single curative dose
- minimal effective dose ([6]; Plasmodium berghei, in Mus musculus, Table 4, read-out: active dose (active only at)): 160 mg/kg
- suppressive activity in words ([6]; Rane mouse test): very weak activity at non-toxic dose levels
- ΔMST ([6]; Table 1, P. berghei, Rane Mouse Test): 9 days
- Toxic death (T) ([6]; Table 1): 2/5
- ΔMST ([6]; Table 4): 9 days
- curative activity in words ([6]; Table 4, highest dose of 640 mg/kg): not curative even at the highest dose of 640 mg/kg
- Toxic death (T) ([6]; Table 4): 2/5
- Cures ([7]; 3.3 mg/kg × 3 of base): 0/10
- Cures ([7]; 13.3 mg/kg × 3 of base): 3/8
- Cures ([7]; 26 mg/kg × 3 of base): 5/6
